In patent publication US6399614B1, “1-(N-phenylaminoalkyl)piperazine derivatives substituted at position 2 of the phenyl ring” (Recordati S.A. Chemical and Pharmaceutical Company, priority 1997, dated 2002):
Where two headings read alike, the source gives them in different places.

Columns and labels:
[1] = target: T1, human 5-HT1A serotonergic receptor (Homo sapiens, UniProt P08908); test: Radioreceptor binding, recombinant human 5-HT1A receptors ([3H]8-OH-DPAT, HeLa membranes); conditions: for Ki: recombinant human receptor, [3H]8-OH-DPAT, Ki from IC50 by Cheng & Prusoff, read-out: Binding affinity for the 5-HT1A receptor, Ki
T1 construct: expressed in transfected cells; host or cells: HeLa
T1 sequence (P08908 1-422): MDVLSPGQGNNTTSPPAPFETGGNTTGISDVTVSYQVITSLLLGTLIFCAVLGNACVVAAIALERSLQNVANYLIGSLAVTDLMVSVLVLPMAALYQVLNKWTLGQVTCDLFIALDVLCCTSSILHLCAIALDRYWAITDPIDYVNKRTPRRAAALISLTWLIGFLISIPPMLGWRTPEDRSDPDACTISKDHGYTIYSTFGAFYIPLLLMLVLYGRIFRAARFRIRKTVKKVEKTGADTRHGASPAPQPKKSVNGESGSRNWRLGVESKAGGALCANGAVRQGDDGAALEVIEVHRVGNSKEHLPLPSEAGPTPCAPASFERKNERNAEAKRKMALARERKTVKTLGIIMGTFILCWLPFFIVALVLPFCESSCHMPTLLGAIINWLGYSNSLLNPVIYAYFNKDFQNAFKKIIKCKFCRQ
Method in brief: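 Membranes from HeLa cells stably transfected with human 5-HT1A clone G-21 incubated 30 min at 30° C with 0.2-1 nM [3H]8-OH-DPAT in 50 mM Tris HCl pH 7.4, 2.5 mM MgCl2, 10 μM pargiline; nonspecific binding with 10 μM 5-HT. Filtration assay; IC50 from curve fitting converted to Ki by Cheng-Prusoff.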

urinary bladder = test: Cystometric parameters (cystometrogram) in conscious rats; assay type: in vivo, rat; conditions: for BVC after treatment / MP after treatment: mean ± S.E.; for change in vivo at 0.1 mg/kg / change in vivo at 1 mg/kg / change in vivo at 0.3 mg/kg: Rattus norvegicus, iv, 0.25 h, after vs before; for change in vivo at 0.1 mg/kg: i.v. 100 μg/kg; for change in vivo at 1 mg/kg: i.v. 1000 μg/kg; for change in vivo at 0.3 mg/kg: i.v. 300 μg/kg

| Compound | Ki [1] [nM] | affinity for 5-HT1A receptors (in words) [1] | BVC after treatment (urinary bladder; 15 min after i.v. 100 μg/kg) [mL] | MP after treatment (urinary bladder; 15 min after i.v. 100 μg/kg) [mmHg] | BVC after treatment (urinary bladder; 15 min after i.v. 1000 μg/kg) [mL] | MP after treatment (urinary bladder; 15 min after i.v. 1000 μg/kg) [mmHg] | change in vivo at 0.1 mg/kg (urinary bladder; read-out: BVC % of change) [%] | change in vivo at 0.1 mg/kg (urinary bladder; read-out: MP % of change) [%] | change in vivo at 1 mg/kg (urinary bladder; read-out: BVC % of change) [%] | change in vivo at 1 mg/kg (urinary bladder; read-out: MP % of change) [%] | BVC after treatment (urinary bladder; 15 min after i.v. 300 μg/kg) [mL] | MP after treatment (urinary bladder; 15 min after i.v. 300 μg/kg) [mmHg] | change in vivo at 0.3 mg/kg (urinary bladder; read-out: BVC % of change) [%] | change in vivo at 0.3 mg/kg (urinary bladder; read-out: MP % of change) [%] | effect on MP (in words) (urinary bladder; conscious rats, i.v.) | i.v. dose at which a significant increase in BVC was observed (urinary bladder; conscious rats, i.v.) [mg/kg] |
| --- | --- | --- | --- | --- | --- | --- | --- | --- | --- | --- | --- | --- | --- | --- | --- | --- |
| COc1ccccc1N1CCN(CCN(C(=O)C2CCCCC2)c2ccccc2[N+](=O)[O-])CC1 [Example 2, 1-[N-(2-nitrophenyl)-N-cyclohexylcarbonyl-2-aminoethyl]-4-(2-methoxyphenyl) piperazine] |  | very high affinity |  |  | 0.75 ± 0.10 | 99.6 ± 11.2 |  |  | 21 | -8.6 | 0.87 ± 0.10 | 80.4 ± 6.5 | 22.5 | -15.7 | slight, albeit significant, decrease in MP | 0.3 |
| COc1ccccc1N1CCN(CCN(C(=O)C2CCCCC2)c2ccccc2OC)CC1 [Example 23, 1-[N-(2-methoxyphenyl)-N-cyclohexylcarbonyl-2-aminoethyl]-4-(2-methoxyphenyl)piperazine] | 0.14 |  |  |  | 0.89 ± 0.12 | 61.9 ± 8.5 |  |  | 34.5 | -17.1 | 0.77 ± 0.03 | 86.4 ± 10.0 | 54.3 | -7.6 |  |  |
| O=C(C1CCCCC1)N(CCN1CCN(c2cccc3[nH]ccc23)CC1)c1ccccc1[N+](=O)[O-] [Example 13, 1-[N-(2-nitrophenyl)-N-cyclohexylcarbonyl-2-aminoethyl]-4-(4-indolyl)piperazine] | 0.5 |  | 1.07 ± 0.14 | 75.6 ± 13.7 |  |  | 13.4 | -12.5 |  |  | 0.95 ± 0.12 | 65.7 ± 13.8 | 30.2 | -10.6 |  |  |

Second part, led by results:

| Ki [1] [nM] | affinity for 5-HT1A receptors (in words) [1] | Compound | BVC after treatment (urinary bladder; 15 min after i.v. 100 μg/kg) [mL] | MP after treatment (urinary bladder; 15 min after i.v. 100 μg/kg) [mmHg] | BVC after treatment (urinary bladder; 15 min after i.v. 1000 μg/kg) [mL] | MP after treatment (urinary bladder; 15 min after i.v. 1000 μg/kg) [mmHg] | change in vivo at 0.1 mg/kg (urinary bladder; read-out: BVC % of change) [%] | change in vivo at 0.1 mg/kg (urinary bladder; read-out: MP % of change) [%] | change in vivo at 1 mg/kg (urinary bladder; read-out: BVC % of change) [%] | change in vivo at 1 mg/kg (urinary bladder; read-out: MP % of change) [%] | BVC after treatment (urinary bladder; 15 min after i.v. 300 μg/kg) [mL] | MP after treatment (urinary bladder; 15 min after i.v. 300 μg/kg) [mmHg] | change in vivo at 0.3 mg/kg (urinary bladder; read-out: BVC % of change) [%] | change in vivo at 0.3 mg/kg (urinary bladder; read-out: MP % of change) [%] | effect on MP (in words) (urinary bladder; conscious rats, i.v.) | i.v. dose at which a significant increase in BVC was observed (urinary bladder; conscious rats, i.v.) [mg/kg] |
| --- | --- | --- | --- | --- | --- | --- | --- | --- | --- | --- | --- | --- | --- | --- | --- | --- |
| 0.6 |  | COC(=O)c1ccccc1N(CCN1CCN(c2ccccc2OC)CC1)C(=O)C1CCCCC1 [Example 18, 1-[N-(2-methoxycarbonylphenyl)-N-cyclohexylcarbonyl-2-aminoethyl]-4-(2-methoxyphenyl)piperazine] | 0.80 ± 0.09 | 48.5 ± 4.9 | 0.89 ± 0.16 | 79.3 ± 17.0 | 33.3 | -34.3 | 40.3 | -13.5 |  |  |  |  |  |  |
|  | very high affinity | COc1ccccc1N1CCN(CCN(C(=O)C2CCCCC2)c2ccccc2)CC1 [Compound A, 1-(N-phenyl-N-cyclohexylcarbonyl-2-aminoethyl)-4-(2-methoxyphenyl)piperazine, reference compound] |  |  | 0.97 ± 0.11 | 84.1 ± 5.2 |  |  | 24.4 | -6.8 | 0.87 ± 0.05 | 85.6 ± 11.3 | 7.4 | -5.5 |  | 1.0 |
